The test system of one data set is TXA2. The data set can be described thus: TXA2 synthesis in RAW 264.7 (ELISA). Particulars: LPS 50 ng/ml, 16 hrs. The class given is cell-based, mouse. The protocol:
(§1) The mouse macrophage cell line RAW 264.7 was cultured in DMEM supplemented with foetal calf serum (FCS), 2 mM glutamine and 50 U/ml penicillin/streptomycin. Cells were treated with either test compounds (in 0.025% DMSO) or vehicle alone, and added one hour before 50 ng/ml LPS. After incubation for 16 hrs, culture media was collected for PGE2 or TXB2 measurement by ELISA (Cayman Chemical), and TNFα measurement using an ELISA (Becton Dickinson).

The subject of the next data set is rabbit kidney (RK-13). As to the kind of experiment: Toxicity in normal cells (MTT), RK-13. The class given is cell-based. The note with it: Oryctolagus cuniculus, RK-13, 120 h, 5 days, top concentration 150 μM, read-out: Normal cell viability IC50. The protocol:
(§2) Human neonatal fibroblast foreskin (NFF—a gift from Dr. Peter Parsons, Queensland Institute of Medical Research) or rabbit kidney (RK-13—a gift from Prof. Miller Whalley, Macquarie University) cells were seeded into 96 well plates and cultured in RPMI supplemented with 10% FCS (CSL, Australia), penicillin (100 U/ml), streptomycin ([…]), L-glutamine (2 mM) and sodium bicarbonate (1.2 g/L) at 37° C. and 5% CO2 for 24 hours until cells had attached and entered log phase of growth. Test compounds were added in serial two-fold dilutions from 150 μM in triplicate and incubated for a further 5 days. MTT was then added to each well, incubated for 3 hours at 37° C., after which the medium was tipped off. Following the addition of DMSO, the absorbance for each well was read on a plate reader. The assays were repeated at least twice.

The next data set relates to iNOS. The data set can be described thus: NO synthesis in LPS-stimulated RAW 264.7 (Griess). Particulars: LPS 50 ng/ml, 16 hrs. It counts as cell-based, mouse. The protocol:
The mouse macrophage cell line RAW 264.7 was cultured in DMEM supplemented with foetal calf serum (FCS), 2 mM glutamine and 50 U/ml penicillin/streptomycin. Cells were treated with either the compounds of the formula (I) (in 0.025% DMSO) or vehicle alone, and added one hour before 50 ng/ml LPS, which induces iNOS and the production of NO. After incubation for 16 hrs, culture media was collected. Nitrite concentration is a quantitative indicator of NO production and was determined by the Griess Reaction. Briefly, 100 μL of Griess reagent was added to 50 μL of each supernatant in duplicate. The absorbance at 550 nm was measured (Molecular Devices, SpectraMax 250 microplate spectrophotometer, CA, USA), and nitrite concentrations were determined against a standard curve of sodium nitrite.
On the technique in general: Nitrite, measured by Griess reagent, commonly stands in for NO production.

The test system of a further data set is PGE2. As to the kind of experiment: PGE2 synthesis in RAW 264.7 (ELISA). The note with it: LPS 50 ng/ml, 16 hrs. It counts as cell-based, mouse. The protocol:
as §1

The next data set relates to RAW 264.7. The data set can be described thus: Toxicity in RAW 264.7. It counts as cell-based, mouse.
The test system of a further data set is NFκB. The data set can be described thus: NFκB promoter activity in transfected THP-1 cells (beta-lactamase reporter). The class given is cell-based, human. The note with it: THP-1 cells, TNFα-stimulated. The protocol: The assay utilizes a genetically modified THP-1 cell line and GeneBLAzer® beta-lactamase technology (Invitrogen Corp). The human THP-1 monocyte/macrophages contain a stably-transfected beta-lactamase reporter gene under control of the NFkB response element. They respond to stimulation with TNFα, which leads to activation of the NFkB signaling pathway. Co-incubation of cells with TNFα and test material allows quantitative determination of the ability of test material to inhibit TNFα-stimulated beta-lactamase production. An inflammatory index was calculated as the ratio of beta-lactamase product to beta-lactamase substrate.
In brief, genetically modified THP-1 cells were seeded into wells of a 96-well plate (50×10^3 cells/well) in the presence of RPMI 1640 medium (70 μl). TNFα was added to each well (10 μl) to give a final concentration of 7.5 ng/ml. Dialyzed bovine serum was added (10 μl). Test compounds were dissolved in DMSO (10 μL) (5 wells). Each plate contained a no-cell control (4 wells), a no-serum control (4 wells) and two serum controls. Plates were incubated for 5 h at 37° C. to allow for NFkB-stimulated beta-lactamase production. LiveBLAzer™ FRET B/G Substrate (CCF4-AM) substrate was then added to the assay. CCF4-AM is a Förster resonance energy transfer (FRET) based substrate for beta-lactamase developed by Invitrogen Corp. Once CCFA-AM enters a cell, it is converted to negatively charged CCF4 by endogenous esterases. Excitation of this substrate at 409 nm leads to efficient FRET between the coumarin and fluorescein moieties, resulting in a green fluorescence detectable at 530 nm. The presence of beta-lactamase leads to cleavage of CCF4 and results in a loss of FRET, resulting in a robust blue fluorescent signal detectable at 460 nm. Thus, activity of beta-lactamase (a marker of NFkB-promoter activity) is measured as a product to substrate ratio (blue/green fluorescence ratio: 460 nm/530 nm).

The nature of data set [1]: Free radical scavenging (DPPH). It counts as biochemical. Particulars: DPPH 0.1 mM, 20 minutes, 517 nm; read-out: Free radical scavenging ability EC50. The protocol: The antioxidant (free radical trapping) activity of test compounds was assessed using the stable free radical compound 2,2-diphenyl-1-picrylhydrazyl (DPPH). A stock solution of DPPH was prepared at a concentration of 0.1 mM in ethanol and mixed for 10 minutes prior to use. Compound (1) was reacted with DPPH for 20 minutes, after which time the absorbance at 517 nm was determined. The change in absorbance at 517 nm was compared to a reagent blank (DPPH with ethanol alone). The IC50 value was estimated as the concentration of the test compound that caused a 0.6 change in absorbance (with 1.2 absorbance units representing total scavenging of the DPPH radical).
(In general: DPPH is a stable violet radical that fades when it is reduced.)

Data set [2] deals with neonatal fibroblast foreskin (NFF). As to the kind of experiment: Toxicity in normal cells (MTT), NFF. The note with it: Homo sapiens, 120 h, 5 days, top concentration 150 μM, read-out: Normal cell viability IC50. The class given is cell-based. The protocol:
as §2

The subject of the next data set is TNFα. The data set can be described thus: TNFα synthesis in RAW 264.7 (ELISA). The class given is cell-based, mouse. The note with it: LPS 50 ng/ml, 16 hrs. The protocol: as §1
(In general: An ELISA detects its analyte on a solid surface through an enzyme-linked reagent.)

The subject of a further data set is THP-1 cells. The data set can be described thus: Cytotoxicity in the THP-1 NFκB assay. It counts as cell-based, human. Particulars: at active concentrations.

The term IC50 denotes the midpoint of a concentration-inhibition curve. As usually defined, the EC50 is the concentration that produces a half-maximal response.

As to `COC(=O)CNCc1cc2c(cc1O)OCC(c1ccc(O)cc1)=C2` [Compound (2)], the “TXB2” value in the data set with TXA2 (1 μM) was 16.71 ± 3.43 pg/mL; in the data set on TXA2 (10 μM), 17.58 ± 7.99 pg/mL. The IC50 in the data set with rabbit kidney (RK-13) is over 150 µM; in data set [2], 145 ± 8.1 µM. The “NO” value with iNOS (1 μM) turned out to be 16.41 ± 0.0 µM; with iNOS (10 μM), 10.22 ± 0.15 µM. Moreover, the figures for the “PGE2” value with PGE2 (1 μM) and in the data set with PGE2 (10 μM) were 3180.37 ± 127.29 pg/mL and 2070.69 ± 168.81 pg/mL, respectively. Besides, the “Effect on the viability of RAW 264.7 cells” value in the data set on RAW 264.7 is listed as “little effect on the viability”. In addition, in the data set with NFκB, the “Effect on promoter activity of NFκB (in words)” value is recorded as “active at the highest concentration only”. Besides, the EC50 in data set [1] is over 100 µM. Further, the “TNFα” value is 35085.88 ± 2273.16 pg/mL with TNFα (1 μM) and 46065.55 ± 1234.32 pg/mL with TNFα (10 μM). For the same compound, the Cytotoxicity result in the data set on THP-1 cells is listed as “absence of cytotoxicity”.

The values above are taken from patent publication US20120003270A1, “6-SUBSTITUTED ISOFLAVONOID COMPOUNDS AND USES THEREOF” (priority 2008, published 2012).
